Three molecules from paper PMC4418806 (Biochemistry, 2009) can be followed below.

Assay [1] has as its target T1, Escherichia coli biotin synthase (BioB), His6-BioB (Escherichia coli, UniProt P12996, N153S).
T1 sequence (P12996 1-346 N153S): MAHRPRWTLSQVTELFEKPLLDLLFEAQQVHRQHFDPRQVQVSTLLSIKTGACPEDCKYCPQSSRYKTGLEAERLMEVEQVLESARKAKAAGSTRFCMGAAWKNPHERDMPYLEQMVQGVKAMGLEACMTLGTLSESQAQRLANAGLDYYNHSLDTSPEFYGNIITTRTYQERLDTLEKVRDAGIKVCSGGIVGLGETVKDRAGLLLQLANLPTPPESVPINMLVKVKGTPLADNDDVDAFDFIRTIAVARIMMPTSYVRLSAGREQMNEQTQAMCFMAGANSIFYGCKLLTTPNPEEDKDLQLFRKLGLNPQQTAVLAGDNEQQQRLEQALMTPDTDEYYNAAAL
Kind of assay: […] kDa centrifugal filtration binding assay, HPLC.

Assay [2] concerns the target T2, Escherichia coli biotin synthase (BioB), His6-BioB (Escherichia coli, UniProt P12996, N153Q).
T2 sequence (P12996 1-346 N153Q): T1 sequence (P12996 1-346 N153S) with S153Q
Kind of assay: […] kDa centrifugal filtration binding assay, HPLC.

The target in assay [3] is T3, Escherichia coli biotin synthase (BioB), His6-BioB (Escherichia coli, UniProt P12996).
T3 sequence (P12996 1-346): T1 sequence (P12996 1-346 N153S) with S153N
Kind of assay: […] kDa centrifugal filtration binding assay, HPLC.

For assay [4], the target named is T3, Escherichia coli biotin synthase (BioB), His6-BioB. The experiment in a line: […] kDa centrifugal filtration of assay mixture, HPLC. The assay is classed as binding. The note with it: 50 μM enzyme, intermediate formed in situ, after 2 h assay, anaerobic.

Each structure is given as a SMILES string. Where a chain is given by its changes, count along the chain named.

In the case of `C[S+](CC[C@H](N)C(=O)O)C[C@H]1O[C@@H](n2cnc3c(N)ncnc32)[C@H](O)[C@@H]1O` (stereo partly shown) [AdoMet], the Kd in assay [1] was found to be 3 ± 1 µM; in assay [2], 530 ± 180 µM; in assay [3], 1 ± 0.5 µM.

With `O=C(O)CCCCC[C@H]1NC(=O)N[C@H]1CS` [9-MDTB], in assay [4], the “% bound to protein” value is given as ~ 50%.

On to `C[C@@H]1NC(=O)N[C@@H]1CCCCCC(=O)O` [DTB], for which the results for the Kd in assay [1], in assay [2] and in assay [3] were 11 ± 3 µM, 110 ± 30 µM and 0.5 ± 1 µM, respectively.

A word on the Kd: it is the constant that tells how readily two partners part at equilibrium. High values mean lower affinity, low ones higher affinity.
